EP0611660A2, “Condensed 5-membered heterocycles, process for their preparation and medicines containing these compounds” (Dr. Karl Thomae GmbH, priority 1993, dated 1994)
pIC50: −log10 of the molar value. Structures can show the parent of a compound that is named as a salt.

Test system: Thrombozytenaggregation
Test: Antithrombotic effect: collagen-induced platelet aggregation (Born and Cross) in platelet-rich plasma
Assay type: cell-based
Details: human platelet-rich plasma, 10 min preincubation at 37 °C, 50% change of optical density, read-out: Hemmung der Plättchenaggregation EC50
Source text: 2. Antithrombotische Wirkung: Methodik Die Thrombozytenaggregation wird nach der Methode von Born und Cross (J. Physiol. 170, 397 (1964)) in plättchenreichem Plasma gesunder Versuchspersonen gemessen. Zur Gerinnungshemmung wird das Blut mit Natriumcitrat 3,14 % im Volumenverhältnis 1:10 versetzt. Collagen-induzierte Aggregation Der […] Substanz photometrisch gemessen und registriert. Aus dem Neigungswinkel der Dichtekurve wird auf die Aggregationsgeschwindigkeit geschlossen. Der Punkt der Kurve, bei dem die größte Lichtdurchlässigkeit vorliegt, dient zur Berechnung der "optical density". Die Collagen-Menge wird möglichst gering gewählt, aber doch so, daß sich eine irreversibel verlaufende Reaktionskurve ergibt. Verwendet wird das handelsübliche Collagen der Firma Hormonchemie, München. Vor der Collagen-Zugabe wird das Plasma jeweils 10 Minuten mit der Substanz bei 37 ° C inkubiert. Aus den erhaltenen Meßzahlen wird graphisch eine EC50 bestimmt, die sich auf eine 50%ige Änderung der "optical density" […].

| SMILES | pIC50 |
| --- | --- |
| Cn1c(C(=O)NC2CCNCC2)nc2cc(C(=O)NCCC(=O)O)ccc21 [1(1), 5-[(2-Carboxy-ethyl)-aminocarbonyl]-1-methyl-2-[(4-piperidinyl)-aminocarbonyl]-benzimidazol-dihydro-bromid] | < 5.00 |
| Cn1c(CCC2CCNCC2)nc2cc(C(=O)CCCC(=O)O)ccc21 [1(15), 5-(4-Carboxy-1-oxo-butyl)-1-methyl-2-[2-(4-piperidinyl)-ethyl]-benzimidazol-dihydrobromid] | 5.90 |
| Cn1c(=O)n(CCCCC(=O)O)c(=O)c2[nH]c(CCC3CCNCC3)nc21 [1(48), 1-(4-Carboxy-butyl)-3-methyl-8-[2-(4-piperidinyl)ethyl]-xanthin-dihydrochlorid] | 6.60 |
| Cn1c(CCC2CCNCC2)nc2c(=O)n(CCCCC(=O)O)c(=O)n(C)c21 [1(49), 1-(4-Carboxy-butyl)-3,9-dimethyl-8-[2-(4-piperidinyl)-ethyl]-xanthin-dihydrobromid] | 6.82 |
| N=C(N)c1ccc(-c2nc3c(=O)n(CCCCC(=O)O)c(=O)n4c3n2CCC4)cc1 [1(61), 2-(4-Amidino-phenyl)-9-(4-carboxy-butyl)-8,10-dioxo-5,6-dihydro-4H,9H-pyrimido[1,2,3-cd]purin-dih-ydrobromid] | 6.96 |

Further lines, results first:

| pIC50 | SMILES |
| --- | --- |
| 5.36 | O=C(O)CCCCn1c(=O)c2nc(CCC3CCNCC3)n3c2n(c1=O)CCC3 [1(63), 9-(4-Carboxy-butyl)-2-[2-(4-piperidinyl)-ethyl]-8,10-dioxo-5,6-dihydro-4H,9H-pyrimido[1,2,3-cd]purin-dihydrobromid] |
| 4.52 | Cn1c(=O)n(CCCCC(=O)O)c(=O)c2[nH]c([C@H]3CC[C@H](CN)CC3)nc21 [1(64), 8-(trans-4-Aminomethyl-cyclohexyl)-1-(4-carboxy-butyl)-3-methyl-xanthin-dihydrochlorid] |
| 5.64 | Cn1c(-c2ccc(C3CCNCC3)cc2)nc2cc(C=CC(=O)O)ccc21 [1(67), 5-(2-Carboxy-ethenyl)-1-methyl-2-[4-(4-piperidinyl)-phenyl]-benzimidazol-dihydrobromid] |
| 5.19 | Cn1c(CCC2CCNCC2)nc2c1c(=O)n(CCCCC(=O)O)c(=O)n2C [6(12), 1-(4-Carboxy-butyl)-3,7-dimethyl-8-[2-(4-piperidinyl)-ethyl]-xanthin] |
| 6.18 | COC(=O)CCCCn1c(=O)c2nc(-c3ccc(C(=N)N)cc3)n3c2n(c1=O)CCC3 [7(12), 2-(4-Amidino-phenyl)-9-(4-methoxycarbonyl-butyl)-8,10-dioxo-5,6-dihydro-4H,9H-pyrimido[1,2,3-cd]-purin] |
| 6.37 | Cn1c(CCC2CCNCC2)nc2cc(C(=O)NCCC(=O)O)ccc21 [Beispiel 1, 5-[(2-Carboxy-ethyl)-aminocarbonyl]-1-methyl-2-[2-(4-piperidinyl)-ethyl]-benzimidazol-dihydrobromid] |
| 5.70 | COC(=O)CCNC(=O)c1ccc2c(c1)nc(CCC1CCNCC1)n2C [Beispiel 2, 5-[(2-Methoxycarbonyl-ethyl)-aminocarbonyl]-1-methyl-2-[2-(4-piperidinyl)-ethyl]-benzimidazol] |
